ChEMBL document CHEMBL2331210, “New 2-benzylsulfanyl-nicotinic acid based 1,3,4-oxadiazoles: their synthesis and biological evaluation” (2013)
≈ marks a conversion by molar mass, not a printed value.

Experiments:
Assay type in all cases: functional
MDA-MB-435 = assay: Antitumor activity against human MDA-MB-435 cells assessed as cell growth at 0.1 uM; settings: read-out: Activity
HL-60 = assay: Antitumor activity against human HL60(TB) cells assessed as cell growth at 0.1 uM; settings: read-out: Activity
NCI-H460 = assay: Antitumor activity against human NCI-H460 cells assessed as cell growth at 0.1 uM; settings: read-out: Activity
UO-31 = assay: Antitumor activity against human UO31 cells assessed as cell growth at 0.1 uM; settings: read-out: Activity
MDA-MB-468 = assay: Antitumor activity against human MDA-MB-468 cells assessed as cell growth at 0.1 uM; settings: read-out: Activity
[1] = Antitumor activity against human Hs 578T cells assessed as cell growth at 0.1 uM; settings: read-out: Activity
[2] = test system: Mycobacterium tuberculosis; assay: Antitubercular activity against Mycobacterium tuberculosis H37Rv assessed as growth inhibition after 12 to 28 days by L.J. agar MIC method
SW-620 = assay: Antitumor activity against human SW620 cells assessed as cell growth at 0.1 uM; settings: read-out: Activity
Malme-3M = assay: Antitumor activity against human MALME-3M cells assessed as cell growth at 0.1 uM; settings: read-out: Activity
Aspergillus clavatus = assay: Antimicrobial activity against Aspergillus clavatus MTCC 1323 assessed as growth inhibition measured after overnight incubation by broth dilution method
LOX IMVI = assay: Antitumor activity against human LOXIMVI cells assessed as cell growth at 0.1 uM; settings: read-out: Activity
UACC-62 = assay: Antitumor activity against human UACC62 cells assessed as cell growth at 0.1 uM; settings: read-out: Activity
HCT-15 = assay: Antitumor activity against human HCT15 cells assessed as cell growth at 0.1 uM; settings: read-out: Activity
UACC-257 = assay: Antitumor activity against human UACC257 cells assessed as cell growth at 0.1 uM; settings: read-out: Activity
NCI-H23 = assay: Antitumor activity against human NCI-H23 cells assessed as cell growth at 0.1 uM; settings: read-out: Activity
Streptococcus pyogenes = assay: Antimicrobial activity against Streptococcus pyogenes MTCC 442 assessed as growth inhibition measured after overnight incubation by broth dilution method
DU-145 = assay: Antitumor activity against human DU145 cells assessed as cell growth at 0.1 uM; settings: read-out: Activity
SNB-19 = assay: Antitumor activity against human SNB19 cells assessed as cell growth at 0.1 uM; settings: read-out: Activity
Candida albicans = assay: Antimicrobial activity against Candida albicans MTCC 227 assessed as growth inhibition measured after overnight incubation by broth dilution method
SR = assay: Antitumor activity against human SR cells assessed as cell growth at 0.1 uM; settings: read-out: Activity
HT-29 = assay: Antitumor activity against human HT-29 cells assessed as cell growth at 0.1 uM; settings: read-out: Activity
OVCAR-4 = assay: Antitumor activity against human OVCAR4 cells assessed as cell growth at 0.1 uM; settings: read-out: Activity
OVCAR-3 = assay: Antitumor activity against human OVCAR3 cells assessed as cell growth at 0.1 uM; settings: read-out: Activity
CAKI-1 = assay: Antitumor activity against human CAKI-1 cells assessed as cell growth at 0.1 uM; settings: read-out: Activity
SF-539 = assay: Antitumor activity against human SF539 cells assessed as cell growth at 0.1 uM; settings: read-out: Activity
MDA-MB-231 = assay: Antitumor activity against human MDA-MB-231/ATCC cells assessed as cell growth at 0.1 uM; settings: read-out: Activity
SF-268 = assay: Antitumor activity against human SF268 cells assessed as cell growth at 0.1 uM; settings: read-out: Activity
Escherichia coli = assay: Antimicrobial activity against Escherichia coli MTCC 443 assessed as growth inhibition measured after overnight incubation by broth dilution method
ACHN = assay: Antitumor activity against human ACHN cells assessed as cell growth at 0.1 uM; settings: read-out: Activity
SN12C = assay: Antitumor activity against human SN12C cells assessed as cell growth at 0.1 uM; settings: read-out: Activity
BT-549 = assay: Antitumor activity against human BT549 cells assessed as cell growth at 0.1 uM; settings: read-out: Activity
Pseudomonas aeruginosa = assay: Antimicrobial activity against Pseudomonas aeruginosa MTCC 2488 assessed as growth inhibition measured after overnight incubation by broth dilution method
SK-MEL-28 = assay: Antitumor activity against human SK-MEL-28 cells assessed as cell growth at 0.1 uM; settings: read-out: Activity
IGROV-1 = assay: Antitumor activity against human IGROV1 cells assessed as cell growth at 0.1 uM; settings: read-out: Activity
PC-3 = assay: Antitumor activity against human PC3 cells assessed as cell growth at 0.1 uM; settings: read-out: Activity
Staphylococcus aureus = assay: Antimicrobial activity against Staphylococcus aureus MTCC 96 assessed as growth inhibition measured after overnight incubation by broth dilution method
HCT-116 = assay: Antitumor activity against human HCT116 cells assessed as cell growth at 0.1 uM; settings: read-out: Activity
SNB-75 = assay: Antitumor activity against human SNB75 cells assessed as cell growth at 0.1 uM; settings: read-out: Activity
CCRF-CEM = assay: Antitumor activity against human CCRF-CEM cells assessed as cell growth at 0.1 uM; settings: read-out: Activity
K562 = assay: Antitumor activity against human K562 cells assessed as cell growth at 0.1 uM; settings: read-out: Activity
RXF 393 = assay: Antitumor activity against human RXF393 cells assessed as cell growth at 0.1 uM; settings: read-out: Activity
SK-OV-3 = assay: Antitumor activity against human SKOV3 cells assessed as cell growth at 0.1 uM; settings: read-out: Activity
SF-295 = assay: Antitumor activity against human SF295 cells assessed as cell growth at 0.1 uM; settings: read-out: Activity
OVCAR-8 = assay: Antitumor activity against human OVCAR8 cells assessed as cell growth at 0.1 uM; settings: read-out: Activity
TK-10 = assay: Antitumor activity against human TK10 cells assessed as cell growth at 0.1 uM; settings: read-out: Activity
NCI-H226 = assay: Antitumor activity against human NCI-H226 cells assessed as cell growth at 0.1 uM; settings: read-out: Activity
T47D = assay: Antitumor activity against human T47D cells assessed as cell growth at 0.1 uM; settings: read-out: Activity
RPMI-8226 = assay: Antitumor activity against human RPMI8226 cells assessed as cell growth at 0.1 uM; settings: read-out: Activity
OVCAR-5 = assay: Antitumor activity against human OVCAR5 cells assessed as cell growth at 0.1 uM; settings: read-out: Activity
[3] = Antitumor activity against human HCC2998 cells assessed as cell growth at 0.1 uM; settings: HCC 2998, read-out: Activity
[4] = Antitumor activity against human EKVX cells assessed as cell growth at 0.1 uM; settings: read-out: Activity
MCF7 = assay: Antitumor activity against human MCF7 cells assessed as cell growth at 0.1 uM; settings: read-out: Activity
SK-MEL-5 = assay: Antitumor activity against human SK-MEL-5 cells assessed as cell growth at 0.1 uM; settings: read-out: Activity
M14 = assay: Antitumor activity against human M14 cells assessed as cell growth at 0.1 uM; settings: read-out: Activity
Aspergillus niger = assay: Antimicrobial activity against Aspergillus niger MTCC 282 assessed as growth inhibition measured after overnight incubation by broth dilution method
MOLT-4 = assay: Antitumor activity against human MOLT4 cells assessed as cell growth at 0.1 uM; settings: read-out: Activity
A498 = assay: Antitumor activity against human A498 cells assessed as cell growth at 0.1 uM; settings: read-out: Activity
A549 = assay: Antitumor activity against human A549/ATCC cells assessed as cell growth at 0.1 uM; settings: read-out: Activity
NCI/ADR-RES = assay: Antitumor activity against human NCI/ADR-RES cells assessed as cell growth at 0.1 uM; settings: read-out: Activity
U-251 = assay: Antitumor activity against human U251 cells assessed as cell growth at 0.1 uM; settings: read-out: Activity
KM12 = assay: Antitumor activity against human KM12 cells assessed as cell growth at 0.1 uM; settings: read-out: Activity
NCI-H522 = assay: Antitumor activity against human NCI-H522 cells assessed as cell growth at 0.1 uM; settings: read-out: Activity
HOP-62 = assay: Antitumor activity against human HOP62 cells assessed as cell growth at 0.1 uM; settings: read-out: Activity

c1ccc(CSc2ncccc2-c2nnc(SCCN3CCOCC3)o2)cc1
growth at 0.1 µM (MDA-MB-435): 114% | growth at 0.1 µM (HL-60): 101% | growth at 0.1 µM (NCI-H460): 122% | growth at 0.1 µM (UO-31): 89.4% | growth at 0.1 µM (MDA-MB-468): 98.3% | growth at 0.1 µM [1]: 133% | growth inhibition (GI) [2]: 99% | MIC ([2]; Mycobacterium tuberculosis, H37Rv): 25 µg/mL (≈ 60.3 µM) | growth at 0.1 µM (SW-620): 107% | growth at 0.1 µM (Malme-3M): 111% | MIC (Aspergillus clavatus): 1000 µg/mL (≈ 2410 µM) | growth at 0.1 µM (LOX IMVI): 108% | growth at 0.1 µM (UACC-62): 113% | growth at 0.1 µM (HCT-15): 105% | growth at 0.1 µM (UACC-257): 147% | growth at 0.1 µM (NCI-H23): 104% | MIC (Streptococcus pyogenes): 200 µg/mL (≈ 482 µM) | growth at 0.1 µM (DU-145): 112% | growth at 0.1 µM (SNB-19): 115% | MIC (Candida albicans): 1000 µg/mL (≈ 2410 µM) | growth at 0.1 µM (SR): 104% | growth at 0.1 µM (HT-29): 111% | growth at 0.1 µM (OVCAR-4): 106% | growth at 0.1 µM (OVCAR-3): 120% | growth at 0.1 µM (CAKI-1): 100% | growth at 0.1 µM (SF-539): 132% | growth at 0.1 µM (MDA-MB-231): 114% | growth at 0.1 µM (SF-268): 107% | MIC (Escherichia coli): 200 µg/mL (≈ 482 µM) | growth at 0.1 µM (ACHN): 124% | growth at 0.1 µM (SN12C): 114% | growth at 0.1 µM (BT-549): 112% | MIC (Pseudomonas aeruginosa): 200 µg/mL (≈ 482 µM) | growth at 0.1 µM (SK-MEL-28): 107% | growth at 0.1 µM (IGROV-1): 98.3% | growth at 0.1 µM (PC-3): 111% | MIC (Staphylococcus aureus): 500 µg/mL (≈ 1210 µM) | growth at 0.1 µM (HCT-116): 108% | growth at 0.1 µM (SNB-75): 79.6% | growth at 0.1 µM (CCRF-CEM): 103% | growth at 0.1 µM (K562): 117% | growth at 0.1 µM (RXF 393): 123% | growth at 0.1 µM (SK-OV-3): 109% | growth at 0.1 µM (SF-295): 106% | growth at 0.1 µM (OVCAR-8): 109% | growth at 0.1 µM (TK-10): 118% | growth at 0.1 µM (NCI-H226): 114% | growth at 0.1 µM (T47D): 101% | growth at 0.1 µM (RPMI-8226): 104% | growth at 0.1 µM (OVCAR-5): 119% | growth at 0.1 µM [3]: 116% | growth at 0.1 µM [4]: 108% | growth at 0.1 µM (MCF7): 94.4% | growth at 0.1 µM (SK-MEL-5): 102% | growth at 0.1 µM (M14): 108% | MIC (Aspergillus niger): 1000 µg/mL (≈ 2410 µM) | growth at 0.1 µM (MOLT-4): 103% | growth at 0.1 µM (A498): 107% | growth at 0.1 µM (A549): 112% | growth at 0.1 µM (NCI/ADR-RES): 107% | growth at 0.1 µM (U-251): 117% | growth at 0.1 µM (KM12): 107% | growth at 0.1 µM (NCI-H522): 105% | growth at 0.1 µM (HOP-62): 116%
